Measured values: publication PMC11096667 (Cell reports, 2024)

B1: C-terminally truncated mouse TRPM7 (residues 1-1280) (domain or fragment, UniProt Q923J1 1-1280, looked up)
chain: MSQKSWIESTLTKRECVYIIPSSKDPHRCLPGCQICQQLVRCFCGRLVKQHACFTASLAMKYSDVKLGEHFNQAIEEWSVEKHTEQSPTDAYGVINFQGGSHSYRAKYVRLSYDTKPEIILQLLLKEWQMELPKLVISVHGGMQKFELHPRIKQLLGKGLIKAAVTTGAWILTGGVNTGVAKHVGDALKEHASRSSRKICTIGIAPWGVIENRNDLVGRDVVAPYQTLLNPLSKLNVLNNLHSHFILVDDGTVGKYGAEVRLRRELEKTINQQRIHARIGQGVPVVALIFEGGPNVILTVLEYLQESPPVPVVVCEGTGRAADLLAYIHKQTEEGGNLPDAAEPDIISTIKKTFNFGQSEAVHLFQTMMECMKKKELITVFHIGSEDHQDIDVAILTALLKGTNASAFDQLILTLAWDRVDIAKNHVFVYGQQWLVGSLEQAMLDALVMDRVSFVKLLIENGVSMHKFLTIPRLEELYNTKQGPTNPMLFHLIRDVKQGNLPPGYKITLIDIGLVIEYLMGGTYRCTYTRKRFRLIYNSLGGNNRRSGRNTSSSTPQLRKSHETFGNRADKKEKMRHNHFIKTAQPYRPKMDASMEEGKKKRTKDEIVDIDDPETKRFPYPLNELLIWACLMKRQVMARFLWQHGEESMAKALVACKIYRSMAYEAKQSDLVDDTSEELKQYSNDFGQLAVELLEQSFRQDETMAMKLLTYELKNWSNSTCLKLAVSSRLRPFVAHTCTQMLLSDMWMGRLNMRKNSWYKVILSILVPPAILMLEYKTKAEMSHIPQSQDAHQMTMEDSENNFHNITEEIPMEVFKEVKILDSSDGKNEMEIHIKSKKLPITRKFYAFYHAPIVKFWFNTLAYLGFLMLYTFVVLVKMEQLPSVQEWIVIAYIFTYAIEKVREVFMSEAGKISQKIKVWFSDYFNVSDTIAIISFFVGFGLRFGAKWNYINAYDNHVFVAGRLIYCLNIIFWYVRLLDFLAVNQQAGPYVMMIGKMVANMFYIVVIMALVLLSFGVPRKAILYPHEEPSWSLAKDIVFHPYWMIFGEVYAYEIDVCANDSTLPTICGPGTWLTPFLQAVYLFVQYIIMVNLLIAFFNNVYLQVKAISNIVWKYQRYHFIMAYHEKPVLPPPLIILSHIVSLFCCVCKRRKKDKTSDGPKLFLTEEDQKKLHDFEEQCVEMYFDEKDDKFNSGSEERIRVTFERVEQMSIQIKEVGDRVNYIKRSLQSLDSQIGHLQDLSALTVDTLKTLTAQKASEASKVHNEITRELSISKHLAQNLID

Assays:
[1] = tested on: TRPM7; conditions: cited from earlier work
[2] = tested on: TRPM6; conditions: cited from earlier work
[3] = target: the molecule itself; assay: cryo-EM structure

Row | Molecule | inhibition of TRPM7 [1] | inhibition of TRPM6 [2] | activity against TRPM6 [2] | stoichiometry N [3]
1 | c1ccc2c(c1)CCC[C@H]2Nc1nc2ccccc2[nH]1 [NS8593] | inhibits | inhibits |  | 
2 | N#Cc1ccc(COC[C@H]2O[C@@H](n3c(NCc4ccc(Cl)c(Cl)c4)nc4c(N)ncnc43)[C@H](O)[C@@H]2O)cc1 [VER155008] | potent inhibitor |  | inactive | 
3 | B1 |  |  |  | 4
